These results are taken from patent US20070088414A1, “Particulate formulations for intradermal delivery of biologically active agents” (priority 2005, published 2007).

Data set [1] can be described thus: Lymph node penetration assay. The settings on record: Intradermal injection, liposomes 30 minutes after avidin, nodes harvested 24 hours, sodium salt.
Protocol: Avidin was purchased from Sigma, with the concentration at 10 mg/ml. Avidin was hydrated with injectable saline. A 50 μl aliquot, at a dose of 250 μg, was delivered as described.
SRB was purchased from Sigma (Cat.# S9012). SRB was selected for its high solubility, and due to the fact that it is readily visible to the naked eye and has fluorescent properties.
An LUV process was used to make the SRB-liposomes. Two basic formulations were developed—hi and low PE-biotin content. […] The liposome formulation contained the following: DSPC (94.0 mg; 119.0 μmoles); DSPG (10.3 mg; 13.2 μmoles); Chol (50.9 mg; 132.0 μmoles); and Diol Biotin (2.6 mg; 2.64 μmoles). The mixture was brought to about 20 ml with chloroform and methanol at a 10:1 ratio. Organic solvent was removed at 45° C. A thin film on a rotovap flask was hydrated in 18 ml of 0.1M SRB prepared in buffer (1 mM EDTA, 0.2% NaN3, pH=8.0). The lipid dye suspension was then extruded through a series of nucleopore membranes (5.0. 1.0, 0.8, 0.6, 0.4, 0.2, 0.1, 0.05 micron). Approximately 5 ml was saved after the 0.2, 0.1 and 0.05 micron membranes. Each of the 5 ml preps was centrifuged, and pellets washed with osmotically adjusted (physiological 310 mOSM) buffer. After the free SRB was washed away, the final liposome pellets were resuspended in the same buffer to the final volume of 1 ml. […]
A short description of data set [2]: Payload determination, low molecular weight substance (SRB). Type of data set: physicochemical. The settings on record: SRB dye encapsulated in liposomes, released with 5% Triton X-100, read at 565 nm. As for the experimental part:
To determine the phospholipid concentration of liposomes, 10 μl of each liposome solution was placed in a 16×100 mm glass tube along with 0.4 ml of 10 N sulfuric acid. A set of phosphate standards was prepared from a 0.645 mM stock (Sigma P3869) which was also assayed in glass tubes alongside the liposome samples. Samples, standards and blank tubes were run in duplicate. All tubes were placed in a heating block and digested for 30 minutes at 180° C. Tubes were then removed from the heating block and cooled for 5 minutes before adding 100 μl of 9% hydrogen peroxide. All tubes were then again heated for 30 minutes at 180° C. […] All standards, samples and blanks were read at 820 nm on a spectrophotometer. Using the known standard values, a curve was generated from which phosphate concentration values can be calculated for each of the liposome samples. Phosphate concentration values are expressed as μmoles Pi/mL. […]
Sulfa rhodamine-B sodium salt (“SRB”) was used to determine payload capacity for a low molecular weight substance. […] All samples and standards were then read at 565 nm on a spectrophotometer. SRB dye payload molar concentrations were then calculated from the known standard curve. Using this procedure, the payload for SRB was determined to be about 10.956 nmoles per 50 nmoles of phosphate. […]
On the technique in general: The SRB assay estimates cell density from bound dye.

For data set [3] the following is noted: intravenous, 200 uL single tail vein injection.
Protocol: IV delivery of free and particulate ICG was administered in a 200 uL volume in a single tail vein injection.

Take `CCN(CC)c1ccc2c(-c3ccc(S(=O)(=O)[O-])cc3S(=O)(=O)[O-])c3ccc(=[N+](CC)CC)cc-3oc2c1.[Na+]` [free SRB, Sulfa rhodamine-B sodium salt]: the “Visible Aggregation/Accumulation in Axillary Node” value in data set [1] (listed as Free SRB liposomes) was “no SRB color retention in the node”; in data set [1], “No”. For the same compound, the “payload for SRB” value in data set [2] is given as “about 10.956 nmoles per 50 nmoles of phosphate”.
`CC1(C)C(/C=C/C=C/C=C/C=C2\N(CCCCS(=O)(=O)O)c3ccc4ccccc4c3C2(C)C)=[N+](CCCCS(=O)(=O)[O-])c2ccc3ccccc3c21` [free cardiogreen, Indocyanine Green]: the “accumulation across the peritoneal cavity” value in data set [3] is “manifested accumulation across the peritoneal cavity”.
